Results from patent publication US5583115A, “Dialkyltiacumicin compounds” (Abbott Laboratories, priority 1995, dated 1996).

Columns and labels:
B. bivius = experiment: MIC agar dilution, anaerobic bacteria; assay type: cell-based; conditions: Culture # 2483
B. vulgatus = experiment: MIC agar dilution, anaerobic bacteria; assay type: cell-based
Clostridium difficile = experiment: In vivo hamster model of pseudomembranous Clostridium difficile induced colitis; conditions: for % Weight change, Day 22 / % Mortality: days 8-14; for % Mortality: expiring by day 20
Experimental: (Suppression of normal gastrointestinal bacteria by the ciprofloxacin permitted the drug-resistant C. difficile to predominate.) Five additional hamsters were segregated as a noninfected control group.
The infected animals were divided into three groups comprising (a) 10 untreated animals; (b) 15 vancomycin-treated animals (5 each at 20, 10 and 1 mg/kg/day orally on days 8-14); and (c) 10 animals treated with the compound of Example 2 (5 each at 10 and 1 mg/kg/day on days 8-14). The subject animals were monitored for (a) body weight (infected hamsters lose significant body mass), and (b) mortality (percent expiring by day 20).

CCc1c(Cl)c(OC)c(Cl)c(OC)c1C(=O)OC1C(C)OC(OCC2=CC=CCC(O)C(C)=CC(CC)C(OC3OC(C)(C)C(OC(=O)C(C)C)C(O)C3O)C(C)=CC(C)=CCC(C(C)O)OC2=O)C(OC)C1O (stereo not shown) [Example 2, 3"', 5"'-Di-O-methyltiacumicin B]
MIC (B. bivius): > 2 µg/mL | MIC (B. vulgatus; Culture # 1762): > 2 µg/mL | MIC (B. vulgatus; Culture # 2481): > 2 µg/mL | body mass (Clostridium difficile; 1 mg/kg): maintained body mass closest to that of non-infected controls | % Weight change, Day 22 (Clostridium difficile; 1 mg/kg/day): 154% | % Mortality (Clostridium difficile; 1 mg/kg/day): 20% | % Weight change, Day 22 (Clostridium difficile; 10 mg/kg/day): 140% | % Mortality (Clostridium difficile; 10 mg/kg/day): 60% | treatment of antibiotic-associated colitis (Clostridium difficile; Table 3): effectively treat an antibiotic-associated colitis | survival rate (Clostridium difficile; versus untreated infected controls or vancomycin): higher survival rate than either untreated infected controls or in hamsters treated with vancomycin
